Test [1] deals with TNFα release from THP-1 cells. The experiment in a line: Inhibition of TNFα release from LPS-stimulated THP-1 cells, ELISA. Type of test: cell-based. Conditions: Homo sapiens, THP-1, THP-1 cells, read-out: [CELL] THP-1, IC50, TNF ALPHA, ELISA. The text has this: Compounds of the invention are screened for the ability to inhibit TNFα and IL-1β release from THP-1 cells stimulated with lipopolysaccharide (LPS) in vitro. The ability of compounds to inhibit TNFα and IL-1β release in this in vitro assay is correlated with the inhibition of p38 activity and TNFα and IL-1β expression in vivo, and is therefore an indicator of potential in vivo therapeutic activity (Lee J. C. et al, Ann. N.Y. Acad. Sci. 696: 149-170, 1993 and Nature, 372: 739-746, 1994).
Materials: THP-1 cells from ATCC (TIB202) are maintained at 37° C., 5% CO2 in RPMI 1640 media (available from MediaTech, Herndon, Va.) containing 4.5 g/L glucose, supplemented with 10% fetal bovine serum, 1% penicillin/streptomycin and 50 μM β-mercaptoethanol.
Methods: Test compounds are initially dissolved in RPMI media with 1% DMSO (v/v). Compounds are then serially diluted in RPMI media for all subsequent dilutions. The assay is performed under sterile conditions. THP-1 cells at a culture density of 6-8×10^5 cells/ml are collected and resuspended in the RPMI media at 10^6 cells/ml containing 10% fetal bovine serum, no serum or 1% human serum albumin (HSA). 100 μl of resuspended cells are added to each well, which contain 100 μl of a test compound. Test compounds are prepared at twice the final concentration. Final DMSO concentration is no more than 0.5% (v/v). Cells are preincubated with compound for 30 minutes at 37° C., 5% CO2 prior to stimulation with lipopolysaccharide (LPS) (Sigma L-2880, 4 mg/ml stock in PBS). The final LPS concentration in each well is 10 or 30 μg/ml for TNFα and IL-1β release, respectively. Unstimulated control cell suspensions receive PBS vehicle only. Cell mixtures are incubated for 18 or 48 hours for TNFα and IL-1β prelease, respectively. 150 μl of supernatants are taken and transferred to a fresh plate and stored at −20° C. until further analysis. TNFα and IL-1β levels are measured using ELISA kits from Biosource (Catalog no. KHC3012 for TNFα; KAC1192 for IL-1β). A SpectraMAX 250 is used as the plate reader. Analysis is performed by non-linear regression to generate a dose response curve. The calculated IC50 value is the concentration of the test compound that causes a 50% decrease in TNFα or IL-1β levels.
(In general: ELISA stands for enzyme-linked immunosorbent assay.)

Another test addresses T1, p38α (Homo sapiens, UniProt Q16539).
T1 construct: p38 MAP Kinases are recombinant human full-length proteins with an amino-terminal GST fusion; GST (N); purchased Upstate Biotechnology Inc; host or cells: E. coli
Briefly: p38 MAP Kinase assay: inhibition of ATF2 phosphorylation, ELISA. Type of test: biochemical. The following applies: for inhibition at 10 µM: substrate ATF2, read-out: [ENZ] P38 ALPHA, PCT INH, ELISA (10 uM;ATF2) (Percent); for IC50: ATF2 phosphorylation, read-out: [ENZ] P38 ALPHA, IC50, ELISA. The text has this:
Compounds of the invention are screened for the ability to inhibit ATF2 phosphorylation by p38 MAP Kinase in vitro. The ability of compounds to inhibit ATF2 phosphorylation in this in vitro assay is correlated with the inhibition of p38 MAP Kinase and TNFα expression in vivo, and is therefore an indicator of potential in vivo therapeutic activity (Raingeaud, J., et al, J. Biol. Chem., 270: 7420-7426, 1995, Brinkman, M. N., et al, J. Biol. Chem. 274: 30882-30886, 1999 and Fuchs, S. Y. et al, J. Biol. Chem. 275: 12560-12564, 2000).
Materials: All kinases and the substrate ATF2 are acquired from Upstate Biotechnology Inc. p38 MAP Kinases are recombinant human full-length proteins with an amino-terminal GST fusion, expressed in and purified from E. coli. ATF2 is a GST fusion protein containing amino acids 19-96 of human ATF2 expressed in E. coli. All proteins are aliquoted and stored at −80° C.
Methods: p38 MAP Kinase assays are performed using an assay buffer containing 25 mM HEPES, pH 7.5, 10 mM MgCl2, 2 mM DTT, 20 mM β-glycerophosphate, 0.1 mM Na3VO4, 40 μM ATP and 1.25 μM of ATF2 and in the absence or presence of 1% human serum albumin, Method I and II, respectively, with 0.4-6 ng of protein depending on the kinase used. Compounds are serially diluted in DMSO and 2 μL of test compound at 25× final concentration is used. The vehicle control receives DMSO only. Test compounds are pre-incubated with 20 μl of enzyme in kinase buffer (25 mM HEPES, pH 7.5, 10 mM MgCl2, 2 mM DTT, 20 mM β-glycerophosphate, 0.1 mM Na3VO4 in the absence or presence of 1% human serum albumin, Method I and II, respectively) at room temperature for 15 minutes. […] The reactions are incubated for 30 minutes at 37° C. and terminated by the addition of 18 μl of 200 mM EDTA. An ELISA method (I or II) is used to measure the phosphorylation of ATF2 at Thr 69. Method I: 96-well high binding plates (Corning 3369) are coated with 50 μl of kinase reaction for 1 hour at 37° C. The coated plates are washed with 200 μl washing buffer (25 mM Tris HCl, pH 8.3, 192 mM glycine, 0.1% SDS and 0.05% Tween-20) three times. The plates are then washed three times with SuperBlock in TBS (Pierce, 37535). After blocking, plates are incubated with 50 μl of rabbit anti-phospho-ATF2 antibody (Cell Signaling, 9221L, 1:500) for 30 minutes at 37° C. Plates are washed three times with washing buffer prior to incubation with 50 μl HRP-conjugated goat anti-rabbit antibody (Cell Signaling, 7074, 1:500) for 30 minutes at 37° C. Plates are then washed three times with washing buffer before incubation with 50 μl of Ultra TMB-ELISA (Pierce, 34028) for 8 minutes at room temperature. Finally, 50 ul of phosphoric acid (1 M) is added to stop reactions and plate absorbance is read at 450 nm on a SpectraMax 250 plate reader. Method II: 96-well high binding plates (Corning 3369) are coated with 400 ng of monoclonal antibody against GST-tag (Cell signaling) in 100 μl containing sodium borate (pH 8.3) for 90 minutes at 37° C. The plates are washed with 200 μl washing buffer (25 mM Tris HCl, pH 7.2, 150 mM NaCl and Tween-20) three times and blocked with 200 μl of 5% nonfat milk for 30 minutes at room temperature. The plates are washed three times with washing buffer, 50 μl of stopped kinase reaction are added to each well and incubated for 80 minutes at 37° C. The plates are washed three times with 200 μl washing buffer, and the plates are incubated with 50 μl of rabbit anti-phospho-ATF2 antibody (Cell Signaling, 9221L, 1:500) for 30 minutes at 37° C. Plates are washed three times with washing buffer prior to incubation with 50 μl HRP-conjugated goat anti-rabbit antibody (Cell Signaling, 7074, 1:500) for 30 minutes at 37° C. Plates are washed three times with washing buffer before incubation with 50 μl of Ultra TMB-ELISA (Pierce, 34028) for 25 minutes at room temperature. Finally, 50 μl of phosphoric acid (1 M) is added to stop reactions and plate absorbance is read at 450 nm on a SpectraMax 250 plate reader. […]

T1 sequence (Q16539 whole entry, the tested form may be a part): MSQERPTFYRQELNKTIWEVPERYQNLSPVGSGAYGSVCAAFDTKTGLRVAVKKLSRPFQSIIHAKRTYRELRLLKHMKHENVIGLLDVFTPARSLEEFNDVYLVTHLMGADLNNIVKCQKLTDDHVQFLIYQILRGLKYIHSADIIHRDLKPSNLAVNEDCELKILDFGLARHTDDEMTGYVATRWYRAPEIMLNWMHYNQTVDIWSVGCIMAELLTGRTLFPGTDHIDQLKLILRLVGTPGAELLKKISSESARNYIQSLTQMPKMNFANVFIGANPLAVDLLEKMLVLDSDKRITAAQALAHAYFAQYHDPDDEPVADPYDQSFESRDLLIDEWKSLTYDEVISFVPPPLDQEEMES

What is called IC50 is the concentration at which inhibition is half-maximal. `O=C(Nc1ccc(OCCN2CCSCC2)c2ccccc12)c1cccc(N2CCOCC2)c1` [Compound B20]: the IC50 was > 10 µM in test [1] and 5.55 µM on p38α. In addition, on p38α, the inhibition at 10 µM was 73.5%.
In the same order, the values of `O=C(Nc1ccc(OCCN2CCOCC2)c2ccccc12)c1cccc(-c2ccccc2)c1` [Compound B84, Biphenyl-3-carboxylic acid [4-(2-morpholin-4-yl-ethoxy)-naphthalen-1-yl]-amide] are 2.03 µM, 0.451 µM and 88%.
On to `O=C(Nc1ccc(Oc2ccnc(NC3CCS(=O)(=O)C3)n2)c2ccccc12)c1cc(F)cc(N2CCCCC2)c1` (stereo not shown) [Compound B406], for which the half-inhibitory concentration (IC50) came to 0.117 µM in test [1] and 0.0196 µM at p38α.
For `N#CNc1nccc(Oc2ccc(NC(=O)c3cc(F)cc(N4CCOCC4)c3)c3ccccc23)n1` [Compound B330, N-(4-{[2-(Cyanoamino)pyrimidin-4-yl]oxy}-1-naphthyl)-3-fluoro-5-morpholin-4-ylbenzamide], the IC50 in test [1] is > 1 µM; on p38α, 0.0515 µM.
Take `O=C(Nc1ccc(OCCN2CCOCC2)c2ccccc12)c1cc(Br)ccc1Cl` [Compound B38]: the IC50 (in test [1]; at p38α) was > 10 µM each time.
On to `CC(C)(C)CNc1cccc(C(=O)Nc2ccc(OCCN3CCOCC3)c3ccccc23)c1` [Compound B173, 3-(2,2-Dimethyl-propylamino)-N-[4-(2-morpholin-4-yl-ethoxy)-naphthalen-1-yl]-benzamide], for which the IC50 in test [1] was determined as 2.28 µM. On p38α, the inhibition at 10 µM was found to be 89.5% and the half-inhibitory concentration (IC50) was 0.735 µM.
For `Cc1ccc(C)c(-c2cccc(C(=O)Nc3ccc(OCCN4CCOCC4)c4ccccc34)c2)c1` [Compound B287, 2′,5′-dimethyl-biphenyl-3-carboxylic acid [4-(2-morpholin-4-yl-ethoxy)-naphthalen-1-yl]-amide], the IC50 amounted to 5 µM in test [1] and 0.934 µM at p38α.
Regarding `CCN1CCC[C@H]1CNc1nccc(Oc2ccc(NC(=O)c3cc(F)cc(N4CCCCC4)c3)c3ccccc23)n1` [Compound B419, N-(4-{[2-({[(2S)-1-Ethylpyrrolidin-2-yl]methyl}amino)pyrimidin-4-yl]oxy}-1-naphthyl)-3-fluoro-5-piperidin-1-ylbenzamide], the figures for the IC50 (in test [1]; at p38α) were 0.0554 µM and 0.003 µM, respectively.
Turning to `O=C(Nc1ccc(CN2CCOCC2)c2ccccc12)c1cc(F)cc(N2CCOCC2)c1` [Compound B316, 3-Fluoro-5-morpholin-4-yl-N-(4-morpholin-4-ylmethyl-naphthalen-1-yl)-benzamide], the IC50 was determined as 0.879 µM in test [1] and 1.2 µM on p38α.
The corresponding values for `CC1CCN(c2cc(F)cc(C(=O)Nc3ccc(OCCN4CCNC(=O)C4)c4ccccc34)c2)CC1` [Compound B197, 3-Fluoro-5-(4-methyl-piperidin-1-yl)-N-{4-[2-(3-oxo-piperazin-1-yl)-ethoxy]-naphthalen-1-yl}-benzamide] are 6.63 µM and 1.42 µM.
As to `CCOc1cccc(-c2cccc(C(=O)Nc3ccc(OCCN4CCOCC4)c4ccccc34)c2)c1` [Compound B286], the IC50 (in test [1]; on p38α) was > 10 µM in each case.
Take `O=C(Nc1ccc(OCCN2CCOCC2)c2ccccc12)c1ccc2c(c1)OCCCO2` [Compound B62]: the IC50 (in test [1]; on p38α) was > 10 µM throughout.
For the compound `CN(C)C(=O)[C@@H]1CCCN1c1nccc(Oc2ccc(NC(=O)c3cc(F)cc(N4CCCCC4)c3)c3ccccc23)n1` [Compound B408], in test [1], the IC50 is > 1 µM.
Turning to `O=C(Nc1ccc(OCCN2CCOCC2)c2ccccc12)c1cccc(-c2cccc(F)c2)c1` [Compound B272], the IC50 in test [1] was found to be 3.4 µM.
Consider `CCN(C)c1cccc(C(=O)Nc2ccc(OCCN3CCOCC3)c3ccccc23)n1` [Compound B148], for which the inhibition at 10 µM on p38α was 15.5%.
Turning to `C[C@@H]1CN(CCOc2ccc(NC(=O)c3ccnc(N4CCOCC4)c3)c3ccccc23)C[C@H](C)O1` [Compound B23], the inhibition at 10 µM on p38α amounted to 38%.
For `O=C(Nc1ccc(OCCN2CCOCC2)c2ccccc12)c1cccc(NCc2ccc(F)cc2)c1` [Compound B170], the inhibition at 10 µM at p38α stood at 46%.
The same measure, in the same setting: with `O=C(Nc1ccc(OCCN2CCOCC2)c2ccccc12)c1cccc(C(F)(F)F)c1` [Compound B73] the figure was 10%.
Consider `O=C(Nc1ccc(OCCN2CCOCC2)c2ccccc12)c1cccc2c1Cc1ccccc1-2` [Compound B75], for which, at p38α, the inhibition at 10 µM came out at 27% and the IC50 is > 10 µM.
Take `O=C(Nc1ccc(OCCN2CCOCC2)c2ccccc12)c1ccnc(N2CCC(Cc3ccccc3)CC2)c1` [Compound B124]: the inhibition at 10 µM on p38α came out at 7%.
As to `CC1CCN(c2cccc(C(=O)Nc3ccc(OCCN4CCOCC4)c4ccccc34)n2)CC1` [Compound B143], on p38α, the inhibition at 10 µM turned out to be 32% and the IC50 was > 100 µM.
Consider `O=C(Nc1ccc(OCCN2CCCCC2)c2ccccc12)c1ccc(CN2CCS(=O)(=O)CC2)cc1` [Compound B14], for which the inhibition at 10 µM at p38α was found to be 6%.
Take `O=C(Nc1ccc(OCCN2CCSCC2)c2ccccc12)c1ccc(-n2cccn2)cc1` [Compound B11]: the inhibition at 10 µM on p38α came to 24%.

Source of the values: patent US7829560B2, “1,4-disubstituted naphthalenes as inhibitors of P38 MAP kinase” (Arqule, Inc., priority 2004, dated 2010).
